# Patent US20120101093A1, “SUBSTITUTED IMIDAZO[1,2-A]PYRIDINE DERIVATIVES, PHARMACEUTICAL COMPOSITIONS, AND METHODS OF USE AS BETA-SECRETASE INHIBITORS” (HIGH POINT PHARMACEUTICALS, LLC, priority 2009, published 2012)
# Target: T1, BACE-1 enzyme (Homo sapiens, UniProt P56817)
# T1 construct: purchased R & D Systems 931AS
# Assay: BACE Fluorescence Resonance Energy Transfer (FRET) Assay
# Format: biochemical
# Settings: pH 4-4.5, 30 min pre-incubation, about 1.5 hours reaction
# Outline: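 BACE-1 enzyme pre-incubated 30 min with compound in 7.5% DMSO in 50 mM sodium acetate pH 4-4.5, 0.01% CHAPS, 0.0125% Triton X-100, 0.006% EDTA. Rhodamine/quencher peptide substrate added; ~1.5 h at room temperature, fluorescence read at 540/585 nm. IC50 or percent inhibition at one concentration.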
# T1 sequence (P56817 46-457 limits assumed): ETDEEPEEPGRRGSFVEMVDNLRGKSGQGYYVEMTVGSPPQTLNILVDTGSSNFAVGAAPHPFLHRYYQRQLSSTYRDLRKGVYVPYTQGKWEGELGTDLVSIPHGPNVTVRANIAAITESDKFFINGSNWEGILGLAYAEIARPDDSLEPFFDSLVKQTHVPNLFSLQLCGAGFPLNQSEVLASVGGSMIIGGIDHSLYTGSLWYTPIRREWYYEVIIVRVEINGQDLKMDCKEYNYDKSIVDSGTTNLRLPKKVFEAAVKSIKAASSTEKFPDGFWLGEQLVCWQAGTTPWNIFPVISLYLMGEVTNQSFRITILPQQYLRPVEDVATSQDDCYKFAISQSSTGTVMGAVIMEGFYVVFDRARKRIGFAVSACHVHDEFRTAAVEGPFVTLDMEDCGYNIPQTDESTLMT
row,IC50 [µM],Compound
1,1.65,"CC(C)(C)NCc1cccn2cc(C(=O)Nc3nc4cc(-c5cccc(C(F)(F)F)c5)ccc4[nH]3)nc12 [Example 193, 8-(tert-Butylamino-methyl)-imidazo[1,2-a]pyridine-2-carboxylic acid [5-(3-trifluoromethyl-phenyl)-1H-benzoimidazol-2-yl]-amide]"
2,1.08,"CCN(C)Cc1cccn2cc(C(=O)Nc3nc4cc(-c5cccc(C(F)(F)F)c5)ccc4[nH]3)nc12 [Example 195, 8-[(Ethyl-methyl-amino)-methyl]-imidazo[1,2-a]pyridine-2-carboxylic acid [5-(3-trifluoromethyl-phenyl)-1H-benzoimidazol-2-yl]-amide]"
3,1.14,"O=C(Nc1nc2cc(-c3cccc(C(F)(F)F)c3)ccc2[nH]1)c1cn2cccc(CN3CCOCC3)c2n1 [Example 198, 8-Morpholin-4-ylmethyl-imidazo[1,2-a]pyridine-2-carboxylic acid [5-(3-trifluoromethyl-phenyl)-1H-benzoimidazol-2-yl]-amide]"
4,0.46,"O=C(Nc1nc2cc(-c3cccc(C(F)(F)F)c3)ccc2[nH]1)c1cn2ccc(CO)cc2n1 [Example 200, 7-Hydroxymethyl-imidazo[1,2-a]pyridine-2-carboxylic acid [5-(3-trifluoromethyl-phenyl)-1H-benzoimidazol-2-yl]-amide]"
5,0.66,"O=C(Nc1nc2cc(-c3cccc(C(F)(F)F)c3)ccc2[nH]1)c1cn2ccc(CN3CCNCC3)cc2n1 [Example 203, 7-Piperazin-1-ylmethyl-imidazo[1,2-a]pyridine-2-carboxylic acid [5-(3-trifluoromethyl-phenyl)-1H-benzoimidazol-2-yl]-amide]"
6,0.23,"COCCNCc1ccn2cc(C(=O)Nc3nc4cc(-c5cccc(C(F)(F)F)c5)ccc4[nH]3)nc2c1 [Example 208, 7-[(2-Methoxy-ethylamino)-methyl]-imidazo[1,2-a]pyridine-2-carboxylic acid [5-(3-trifluoromethyl-phenyl)-1H-benzoimidazol-2-yl]-amide]"

# The next lines start with the compound.
row,Compound,IC50 [µM]
1,"CO[C@@H]1CCN(c2cc(F)cn3cc(C(=O)Nc4nc5cc(-c6cc(F)cc(Cl)c6)ccc5[nH]4)nc23)C1 [Example 160, 6-Fluoro-8-((R)-3-methoxy-pyrrolidin-1-yl)-imidazo[1,2-a]pyridine-2-carboxylic acid [5-(3-chloro-5-fluoro-phenyl)-1H-benzoimidazol-2-yl]-amide]",0.75
2,"CC(C)CNCc1cccc2nc(C(=O)Nc3nc4cc(-c5cccc(C(F)(F)F)c5)ccc4[nH]3)cn12 [Example 164, 5-(Isobutylamino-methyl)-imidazo[1,2-a]pyridine-2-carboxylic acid [5-(3-trifluoromethyl-phenyl)-1H-benzoimidazol-2-yl]-amide]",0.3
3,"O=C(Nc1nc2cc(-c3cccc(C(F)(F)F)c3)ccc2[nH]1)c1cn2c(CN3CCCCC3)cccc2n1 [Example 166, 5-Piperidin-1-ylmethyl-imidazo[1,2-a]pyridine-2-carboxylic acid [5-(3-trifluoromethyl-phenyl)-1H-benzoimidazol-2-yl]-amide]",0.79
4,"CCN(CC)Cc1cccc2nc(C(=O)Nc3nc4cc(-c5cccc(C(F)(F)F)c5)ccc4[nH]3)cn12 [Example 168, 5-Diethylaminomethyl-imidazo[1,2-a]pyridine-2-carboxylic acid [5-(3-trifluoromethyl-phenyl)-1H-benzoimidazol-2-yl]-amide]",0.65
5,"O=C(Nc1nc2cc(-c3cccc(C(F)(F)F)c3)ccc2[nH]1)c1cn2c(CNCc3ccccc3)cccc2n1 [Example 173, 5-(Benzylamino-methyl)-imidazo[1,2-a]pyridine-2-carboxylic acid [5-(3-trifluoromethyl-phenyl)-1H-benzoimidazol-2-yl]-amide]",0.57
6,"O=C(Nc1nc2cc(-c3cccc(C(F)(F)F)c3)ccc2[nH]1)c1cn2c(CN3CCCC3)cccc2n1 [Example 175, 5-Pyrrolidin-1-ylmethyl-imidazo[1,2-a]pyridine-2-carboxylic acid [5-(3-trifluoromethyl-phenyl)-1H-benzoimidazol-2-yl]-amide]",0.49
7,"CC(C)(C)NCc1ccc2nc(C(=O)Nc3nc4cc(-c5cccc(C(F)(F)F)c5)ccc4[nH]3)cn2c1 [Example 178, 6-(Tert-Butylamino-methyl)-imidazo[1,2-a]pyridine-2-carboxylic acid [5-(3-trifluoromethyl-phenyl)-1H-benzoimidazol-2-yl]-amide]",0.43
8,"O=C(Nc1nc2cc(-c3cccc(C(F)(F)F)c3)ccc2[nH]1)c1cn2cc(CNC3CCCC3)ccc2n1 [Example 180, 6-Cyclopentylaminomethyl-imidazo[1,2-a]pyridine-2-carboxylic acid [5-(3-trifluoromethyl-phenyl)-1H-benzoimidazol-2-yl]-amide]",0.51
9,"CN(C)Cc1ccc2nc(C(=O)Nc3nc4cc(-c5cccc(C(F)(F)F)c5)ccc4[nH]3)cn2c1 [Example 181, 6-Dimethylaminomethyl-imidazo[1,2-a]pyridine-2-carboxylic acid [5-(3-trifluoromethyl-phenyl)-1H-benzoimidazol-2-yl]-amide]",0.8
10,"CN1CCN(Cc2ccc3nc(C(=O)Nc4nc5cc(-c6cccc(C(F)(F)F)c6)ccc5[nH]4)cn3c2)CC1 [Example 183, 6-(4-Methyl-piperazin-1-ylmethyl)-imidazo[1,2-a]pyridine-2-carboxylic acid [5-(3-trifluoromethyl-phenyl)-1H-benzoimidazol-2-yl]-amide]",0.56
11,"O=C(Nc1nc2cc(-c3cccc(C(F)(F)F)c3)ccc2[nH]1)c1cn2cc(CNCc3ccccc3)ccc2n1 [Example 186, 6-(Benzylamino-methyl)-imidazo[1,2-a]pyridine-2-carboxylic acid [5-(3-trifluoromethyl-phenyl)-1H-benzoimidazol-2-yl]-amide]",0.43
12,"CCNCc1ccc2nc(C(=O)Nc3nc4cc(-c5cccc(C(F)(F)F)c5)ccc4[nH]3)cn2c1 [Example 187, 6-Ethylaminomethyl-imidazo[1,2-a]pyridine-2-carboxylic acid [5-(3-trifluoromethyl-phenyl)-1H-benzoimidazol-2-yl]-amide]",0.51
13,"CCN(C)Cc1cccc2nc(C(=O)Nc3nc4cc(-c5cccc(C(F)(F)F)c5)ccc4[nH]3)cn12 [Example 189, 5-[(Ethyl-methyl-amino)-methyl]-imidazo[1,2-a]pyridine-2-carboxylic acid [5-(3-trifluoromethyl-phenyl)-1H-benzoimidazol-2-yl]-amide]",0.95
14,"CN(Cc1ccccc1)Cc1cccc2nc(C(=O)Nc3nc4cc(-c5cccc(C(F)(F)F)c5)ccc4[nH]3)cn12 [Example 190, 5-[(Benzyl-methyl-amino)-methyl]-imidazo[1,2-a]pyridine-2-carboxylic acid [5-(3-trifluoromethyl-phenyl)-1H-benzoimidazol-2-yl]-amide]",1.28
15,"CC(C)CN(C)Cc1cccc2nc(C(=O)Nc3nc4cc(-c5cccc(C(F)(F)F)c5)ccc4[nH]3)cn12 [Example 191, 5-[(Isobutyl-methyl-amino)-methyl]-imidazo[1,2-a]pyridine-2-carboxylic acid [5-(3-trifluoromethyl-phenyl)-1H-benzoimidazol-2-yl]-amide]",1.53
